# Test results from patent publication US8865634B2, “4-alkyl substituted pyridines as odiferous substances” (Symrise AG, priority 2008, dated 2014).
# How the values were obtained:
# [1] = Diffusivity test (Petri dish 50 cm in front of the test subject, intensity rating); details: scale 1-9 (1=odorless to 9=very strong); 0.5 g in Petri dish, 50 cm from test subject, 20-25° C.
# From the text: 0.5 g of the odiferous substances to be tested are each weighed in a Petri dish and sealed with the lid. The Petri dish is placed 50 cm in front of the test subject (the distance is marked on the table before the test commences).
# The lid is then removed from the Petri dish and a stopwatch is simultaneously started by the test subject. The test subject stops the time immediately they perceive the odor. The test subject assesses the intensity of the sample on a scale of 1=odorless to 9=very strong. The stop time and the intensity are noted on the test sheet.
# Each sample is evaluated by the test subject three times. In order to be certain that the result is not distorted, all windows and doors must be shut. The room is at normal temperature (20-25° C.). […] As a rule a minimum of 8 participants evaluate the sample.
# [2] = Threshold value in air (odor perception threshold, sample bag with gas stream); details: equilibrium approximately 18 hours at ambient temperature; as a rule 8 test subjects
# Experimental: The odiferous substance to be tested is evaporated in a defined sampling system and then assessed sensorially with regard to the perception threshold. The sampling system comprises the sample bag and a gas stream outlet. A defined quantity of the desired odiferous substance is squirted into the bag. The equilibrium time after filling with the sample is approximately 18 hours at ambient temperature; then the content of the bag is presented to the test subject by means of a constant gas stream. At the first discernable olfactory impression a response button is pressed. The odor threshold concentration is achieved when in the next dilution stage the olfactory impression is confirmed by repeated pressing of the response button. The concentration of the sample is increased between the previous and the next samples by a factor of 2.
# The assessment of the threshold value in air is measured against a standard and as a rule 8 test subjects take part in the sensorial evaluation. The participants have no anosmia in respect of the samples to be investigated.
# [3] = Olfactory evaluation of perfume oils with and without 4-decyl pyridine dosed into products
# From the text: The composition with 4-n-decyl pyridine also has a fresher radiance overall.
# Furthermore, the composition as a whole appears to be more harmonious and rounded.
# [4] = Olfactory description of the individual compounds; details: pure compound
# From the text: The olfactory descriptions of the individual compounds are as follows: […]
Structure (SMILES),Diffusivity [1],Threshold value in air [2] [ppm],olfactory description [4],further results
"CC(C)=CCCC(C)=CCCc1ccncc1 [Maritima ®, 4-(4,8-dimethyl-3,7-nonadienyl)-pyridine, reference compound]",3.4,0.155,–,–
CCCCCCCCCCc1ccncc1 [4-decyl pyridine],8.1,0.014,valuable marine character prized and sought after by perfumists,"olfactory effect in perfume oil ([3]; 0.001% in perfume oil F2, 12% perfume oil in ethanol (fine fragrance)): intensifies the transparent fresh head note; olfactory effect in perfume oil ([3]; 0.005% in perfume oil A2, 0.3% perfume oil in all-purpose cleaner, versus A1): extreme intensification of the marine-mossy note; olfactory effect in perfume oil (booster effect) ([3]; 0.01% in perfume oil P2, 0.3% perfume oil in washing powder, versus P1): intensification of the lily of the valley and the fruity notes to a quite exceptional extent; olfactory effect in perfume oil ([3]; 0.02% in perfume oil D2, 0.5% perfume oil in shower gel): boosts (intensifies) the watery-fresh head note of the perfume oil composition; olfactory effect in perfume oil ([3]; 0.05% in perfume oil S2, 0.5% perfume oil in shampoo): intensifies (at a dosing of 0.5% of the perfume oil in the shampoo) the fruity peach/apricot character; olfactory effect in perfume oil ([3]; 0.07% in perfume oil C2, 1.2% perfume oil in soap, versus C1): enormous intensification of the fresh characteristic; olfactory effect in perfume oil ([3]; 1.0% in perfume oil W2, 0.6% perfume oil in fabric conditioner): greatly increases the sought-after violet character"
"CCCCCCCCc1ccncc1 [4-n-octyl pyridine, 4-octyl pyridine]",–,–,very intensive marine (watery) odor with an ozone note,–
"CCCCCCCCCCCc1ccncc1 [4-n-undecyl pyridine, 4-undecyl pyridine]",–,–,"marine character, combining an aldehyde-like note with slight echoes of mandarin",–
"CCCCCCCCCc1ccncc1 [4-n-nonyl pyridine, 4-nonyl pyridine]",–,–,distinctive odor of the sea,–
CCCCCCCCCCCCc1ccncc1 [4-n-dodecyl pyridine],–,–,"Marine (watery) note, reminiscent of seaweed",–
